Data reported in patent publication US8563553B2, “Compounds and compositions as protein kinase inhibitors” (Novartis AG, priority 2009, dated 2013).

biological target: b-Raf(V600E) (Homo sapiens (Human), UniProt P15056, V600E); experiment: Raf/Mek Amplified Luminescence Proximity Homogeneous Assay (Alpha Screen); type: biochemical; conditions: b-Raf(V600E) approximately 4 pM; biotinylated Mek, kinase dead approximately 10 nM; ATP 10 μM; pre-incubation 60 minutes; reaction 3 hours at room temperature; read-out: mut-B-RAF IC50
Sequence (P15056 whole entry V600E): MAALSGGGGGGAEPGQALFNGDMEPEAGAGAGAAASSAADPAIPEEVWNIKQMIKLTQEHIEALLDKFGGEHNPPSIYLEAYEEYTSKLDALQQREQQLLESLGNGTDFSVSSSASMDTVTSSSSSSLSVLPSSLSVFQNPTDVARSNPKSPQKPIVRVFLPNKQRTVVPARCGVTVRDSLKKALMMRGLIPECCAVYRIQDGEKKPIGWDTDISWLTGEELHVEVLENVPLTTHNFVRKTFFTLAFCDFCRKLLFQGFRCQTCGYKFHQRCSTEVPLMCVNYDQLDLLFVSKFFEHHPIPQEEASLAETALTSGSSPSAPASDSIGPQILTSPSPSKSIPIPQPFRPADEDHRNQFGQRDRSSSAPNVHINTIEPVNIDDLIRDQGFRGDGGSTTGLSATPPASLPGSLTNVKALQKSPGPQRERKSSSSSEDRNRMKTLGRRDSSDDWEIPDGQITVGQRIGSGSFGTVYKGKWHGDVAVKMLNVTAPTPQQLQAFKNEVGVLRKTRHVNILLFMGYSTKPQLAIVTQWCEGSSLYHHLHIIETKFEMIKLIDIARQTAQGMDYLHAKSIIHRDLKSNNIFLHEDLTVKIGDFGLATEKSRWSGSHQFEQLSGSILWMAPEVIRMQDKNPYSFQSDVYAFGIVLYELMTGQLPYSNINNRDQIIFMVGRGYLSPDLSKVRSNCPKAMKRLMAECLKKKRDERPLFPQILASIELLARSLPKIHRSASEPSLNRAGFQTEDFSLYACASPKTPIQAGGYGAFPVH
Protocol: Raf/Mek Amplified Luminescence Proximity Homogeneous Assay
Assay buffer: 50 mM Tris, pH 7.5, 15 mM MgCl2, 0.01% Bovine Serum Albumin (BSA), 1 mM dithiothreitol (DTT) Stop buffer: 60 mM ethylenediaminetetraacetic acid (EDTA), 0.01% Tween® 20 Bead buffer: 50 mM Tris, pH 7.5, 0.01% Tween® 20 […]
biotinylated Mek, kinase dead
Alpha Screen detection kit (available from PerkinElmer™, #6760617R)
Anti phospho-MEK1/2 (available from Cell Signaling Technology, Inc. #9121) 384 well assay plates (White Greiner® plates, #781207) […]
biotinylated Mek, Kinase dead approximately 10 nM
Pre-incubation time with compounds 60 minutes at room temperature
Reaction time 1 or 3 hours at room temperature
Raf and biotinylated Mek, kinase dead, were combined at 2× final concentrations in assay buffer (50 mM Tris, pH 7.5, 15 mM MgCl2, 0.01% BSA and 1 mM DTT) and dispensed 10 μl per well in assay plates (Greiner white 384 well assay plates #781207) containing 0.5 μl of 40× of a raf kinase inhibitor test compound diluted in 100% DMSO. The plate was incubated for 60 minutes at room temperature.
The Raf kinase activity reaction was started by the addition of 10 μL per well of 2×ATP diluted in assay buffer. […] Phosphorylated product was measured using a rabbit anti-p-MEK (Cell Signaling, #9121) antibody and the Alpha Screen IgG (ProteinA) detection Kit (PerkinElmer #6760617R), by the addition of 30 μL to the well of a mixture of the antibody (1:2000 dilution) and detection beads (1:2000 dilution of both beads) in bead buffer (50 mM Tris, pH 7.5, 0.01% Tween20). The additions were carried out under dark conditions to protect the detection beads from light. A lid was placed on top of the plate and incubated for 1 hour at room temperature, then the luminescence was read on a PerkinElmer Envision instrument. The concentration of each compound for 50% inhibition (IC50) was calculated by non-linear regression using XL Fit data analysis software.

Going from COC(=O)N[C@@H](C)CNc1nccc(-c2[nH]c(-c3ccc(F)cc3F)nc2-c2cc(F)cc(NS(C)(=O)=O)c2Cl)n1 [Example 1BY] to COC(=O)N[C@@H](C)CNc1nccc(-c2[nH]c(-c3ccc(C(F)(F)F)cc3)nc2-c2cc(F)cc(NS(C)(=O)=O)c2Cl)n1 [Example 1BZ, (S)-Methyl 1-(4-(4-(2-chloro-5-fluoro-3-(methylsulfonamido)phenyl)-2-(4-(trifluoromethyl)phenyl)-1H-imidazol-5-yl)pyrimidin-2-ylamino)propan-2-ylcarbamate], the IC50 falls from 2040 nM to 2 nM (1000-fold).

Compared with COC(=O)N[C@@H](C)CNc1nccc(-c2[nH]c(C(C)(C)C)nc2-c2cc(Cl)cc(NS(C)(=O)=O)c2)n1 [Example 1C, (S)-Methyl 1-(4-(2-tert-butyl-4-(3-chloro-5-(methylsulfonamido)phenyl)-1H-imidazol-5-yl)pyrimidin-2-ylamino)propan-2-ylcarbamate], CCS(=O)(=O)Nc1cc(Cl)cc(-c2nc(C(C)(C)C)[nH]c2-c2ccnc(NC[C@H](C)NC(=O)OC)n2)c1 [Example 1I, (S)-Methyl 1-(4-(2-tert-butyl-4-(3-chloro-5-(ethylsulfonamido)phenyl)-1H-imidazol-5-yl)pyrimidin-2-ylamino)propan-2-ylcarbamate] is 3.2-fold lower in IC50: 0.32 nM for the first, 0.1 nM for the second. The second is the more potent here.

Compared with CCCS(=O)(=O)Nc1cc(Cl)cc(-c2nc(C(C)(C)C)[nH]c2-c2ccnc(NC[C@H](C)NC(=O)OC)n2)c1 [Example 1E, (S)-methyl 1-(4-(2-tert-butyl-4-(3-chloro-5-(propylsulfonamido)phenyl)-1H-imidazol-5-yl)pyrimidin-2-ylamino)propan-2-ylcarbamate], COC(=O)N[C@@H](C)CNc1nccc(-c2[nH]c(C(C)(C)C)nc2-c2cc(Cl)cc(NS(=O)(=O)CC(C)C)c2)n1 [Example 1G, (S)-methyl 1-(4-(2-tert-butyl-4-(3-chloro-5-(2-methylpropylsulfonamido)phenyl)-1H-imidazol-5-yl)pyrimidin-2-ylamino)propan-2-ylcarbamate] is 3-fold higher in IC50: 0.1 nM for the first, 0.3 nM for the second. The first is the more potent here.

Going from COC(=O)N[C@@H](C)CNc1nccc(-c2[nH]c(C(C)(C)C)nc2-c2cc(Cl)cc(NS(=O)(=O)C3CC3)c2)n1 [Example 1F, (S)-methyl 1-(4-(2-tert-butyl-4-(3-chloro-5-(cyclopropanesulfonamido)phenyl)-1H-imidazol-5-yl)pyrimidin-2-ylamino)propan-2-ylcarbamate] to COC(=O)N[C@@H](C)CNc1nccc(-c2[nH]c(C(C)(C)C)nc2-c2cc(Cl)cc(NS(=O)(=O)C(C)C)c2)n1 [Example 1J, (S)-Methyl 1-(4-(2-tert-butyl-4-(3-chloro-5-(1-methylethylsulfonamido)phenyl)-1H-imidazol-5-yl)pyrimidin-2-ylamino)propan-2-ylcarbamate], the IC50 rises from 0.1 nM to 1.35 nM (14-fold). The first is the more potent here.

Going from CCC(C)S(=O)(=O)Nc1cc(Cl)cc(-c2nc(C(C)(C)C)[nH]c2-c2ccnc(NC[C@H](C)NC(=O)OC)n2)c1 (stereo partly drawn) [Example 1H, Methyl (2S)-1-(4-(2-tert-butyl-4-(3-chloro-5-(1-methylpropylsulfonamido)phenyl)-1H-imidazol-5-yl)pyrimidin-2-ylamino)propan-2-ylcarbamate] to COC(=O)N[C@@H](C)CNc1nccc(-c2[nH]c(C(C)(C)C)nc2-c2cc(C)cc(NS(=O)(=O)C(C)C)c2)n1 [Example 1Q, (S)-Methyl 1-(4-(2-tert-butyl-4-(3-methyl-5-(1-methylethylsulfonamido)phenyl)-1H-imidazol-5-yl)pyrimidin-2-ylamino)propan-2-ylcarbamate], the IC50 rises from 0.5 nM to 3.12 nM (6.2-fold). The first is the more potent here.

COC(=O)N[C@@H](C)CNc1nccc(-c2[nH]c(C(C)(C)C)nc2-c2cc(NS(=O)(=O)C(C)C)c(C)c(OC)c2)n1 [Example 1K, (S)-Methyl 1-(4-(2-tert-butyl-4-(3-methoxy-4-methyl-5-(1-methylethylsulfonamido)phenyl)-1H-imidazol-5-yl)pyrimidin-2-ylamino)propan-2-ylcarbamate] and COC(=O)N[C@@H](C)CNc1nccc(-c2[nH]c(C(C)(C)C)nc2-c2cc(NS(=O)(=O)C3CC3)c(C)c(OC)c2)n1 [Example 1L, (S)-Methyl 1-(4-(2-tert-butyl-4-(3-(cyclopropanesulfonamido)-5-methoxy-4-methylphenyl)-1H-imidazol-5-yl)pyrimidin-2-ylamino)propan-2-ylcarbamate] are within 1.5-fold of each other in IC50: 189 nM for the first, 157 nM for the second.

COC(=O)N[C@@H](C)CNc1nccc(-c2[nH]c(C3CC3)nc2-c2cc(Cl)cc(NS(=O)(=O)C(C)C)c2)n1 [Example 1M, (S)-Methyl 1-(4-(4-(3-chloro-5-(1-methylethylsulfonamido)phenyl)-2-cyclopropyl-1H-imidazol-5-yl)pyrimidin-2-ylamino)propan-2-ylcarbamate] and COC(=O)N[C@@H](C)CNc1nccc(-c2[nH]c(C3CC3)nc2-c2cc(Cl)cc(NS(C)(=O)=O)c2)n1 [Example 1S, (S)-Methyl 1-(4-(4-(3-chloro-5-(methylsulfonamido)phenyl)-2-cyclopropyl-1H-imidazol-5-yl)pyrimidin-2-ylamino)propan-2-ylcarbamate] are within 1.5-fold of each other in IC50: 0.63 nM for the first, 0.48 nM for the second.

First: COC(=O)N[C@@H](C)CNc1nccc(-c2[nH]c(C(C)(C)C)nc2-c2cc(Cl)cc(NS(=O)(=O)C3CC3)c2C)n1 [Example 1N, (S)-Methyl 1-(4-(2-tert-butyl-4-(5-chloro-3-(cyclopropanesulfonamido)-2-methylphenyl)-1H-imidazol-5-yl)pyrimidin-2-ylamino)propan-2-ylcarbamate]
Second: COC(=O)N[C@@H](C)CNc1nccc(-c2[nH]c(C(C)(C)C)nc2-c2cc(Cl)cc(NS(=O)(=O)C(C)C)c2C)n1 [Example 1O, (S)-Methyl 1-(4-(2-tert-butyl-4-(5-chloro-2-methyl-3-(1-methylethylsulfonamido)phenyl)-1H-imidazol-5-yl)pyrimidin-2-ylamino)propan-2-ylcarbamate]
The IC50 of the first is 3-fold higher: 204 nM for the first, 67.2 nM for the second. The second is the more potent here.

Going from COC(=O)N[C@@H](C)CNc1nccc(-c2nc(C(C)(C)C)[nH]c2-c2cc(NS(=O)(=O)C(C)C)cc(OC(F)F)c2)n1 [Example 1P, (S)-Methyl 1-(4-(2-tert-butyl-5-(3-(difluoromethoxy)-5-(1-methylethylsulfonamido)phenyl)-1H-imidazol-4-yl)pyrimidin-2-ylamino)propan-2-ylcarbamate] to COC(=O)N[C@@H](C)CNc1nccc(-c2[nH]c(C(C)(C)C)nc2-c2cccc(NS(C)(=O)=O)c2)n1 [Example 1R, (S)-Methyl 1-(4-(2-tert-butyl-4-(3-(methylsulfonamido)phenyl)-1H-imidazol-5-yl)pyrimidin-2-ylamino)propan-2-ylcarbamate], the IC50 rises from 11.2 nM to 34.5 nM (3.1-fold). The first is the more potent here.

COC(=O)N[C@@H](C)CNc1nccc(-c2[nH]c(C3CC3)nc2-c2cccc(NS(C)(=O)=O)c2Cl)n1 [Example 1T, (S)-Methyl 1-(4-(4-(2-chloro-3-(methylsulfonamido)phenyl)-2-cyclopropyl-1H-imidazol-5-yl)pyrimidin-2-ylamino)propan-2-ylcarbamate] and COC(=O)N[C@@H](C)CNc1nccc(-c2[nH]c(C3CC3)nc2-c2cccc(NS(C)(=O)=O)c2F)n1 [Example 1U, (S)-Methyl 1-(4-(2-cyclopropyl-4-(2-fluoro-3-(methylsulfonamido)phenyl)-1H-imidazol-5-yl)pyrimidin-2-ylamino)propan-2-ylcarbamate] are within 1.5-fold of each other in IC50: 0.47 nM for the first, 0.55 nM for the second.

COC(=O)N[C@@H](C)CNc1nccc(-c2[nH]c(C3CC3)nc2-c2cc(F)cc(NS(C)(=O)=O)c2F)n1 [Example 1V, Methyl (2S)-1-(4-(2-cyclopropyl-4-(2,5-difluoro-3-(methylsulfonamido)phenyl)-1H-imidazol-5-yl)pyrimidin-2-ylamino)propan-2-ylcarbamate] and COC(=O)N[C@@H](C)CNc1nccc(-c2[nH]c(C3CC3)nc2-c2cc(Cl)cc(NS(C)(=O)=O)c2Cl)n1 [Example 1X, (S)-Methyl 1-(4-(2-cyclopropyl-4-(2,5-dichloro-3-(methylsulfonamido)phenyl)-1H-imidazol-5-yl)pyrimidin-2-ylamino)propan-2-ylcarbamate] are within 1.5-fold of each other in IC50: 0.2 nM for the first, 0.18 nM for the second.

Going from CCCS(=O)(=O)Nc1cc(Cl)cc(-c2[nH]c(C3CC3)nc2-c2ccnc(NC[C@H](C)NC(=O)OC)n2)c1F [Example 1W, (S)-Methyl 1-(4-(5-(5-chloro-2-fluoro-3-(propylsulfonamido)phenyl)-2-cyclopropyl-1H-imidazol-4-yl)pyrimidin-2-ylamino)propan-2-ylcarbamate] to CCS(=O)(=O)Nc1cc(Cl)cc(-c2[nH]c(C3CC3)nc2-c2ccnc(NC[C@H](C)NC(=O)OC)n2)c1F [Example 1Z, (S)-Methyl 1-(4-(5-(5-chloro-3-(ethylsulfonamido)-2-fluorophenyl)-2-cyclopropyl-1H-imidazol-4-yl)pyrimidin-2-ylamino)propan-2-ylcarbamate], the IC50 falls from 0.89 nM to 0.24 nM (3.7-fold). The second is the more potent here.
